Measurements reported in the supplement of paper PMC10627819.
Values after ≈ are worked out from the molar mass of the structure shown.

Assays:
[1] = system: B. subtilis 168; experiment: fitness (endpoint OD595 vs no drug) (fraction); higher = more growth
In short: (§1)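 With the first reading as background, OD595 was measured every 30 min for 14 h in 384-well plates kept at 37 °C and inoculated at OD595 0.01. TSB, LB Lennox or CY was the medium. Fitness is the optical density at the transition into stationary phase divided by the robust mean of no-drug control wells, with a cap of 1.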

[2] = system: S. pneumoniae D39V; experiment: as above
In short: as §1

[3] = system: B. subtilis 168
[4] = system: S. pneumoniae D39V
[5] = system: S. aureus DSM 20231; experiment: fitness (endpoint OD595 vs no drug) (fraction); higher = more growth
In short: as §1

[6] = system: S. aureus Newman; experiment: as above
In short: as §1

[7] = system: S. aureus DSM 20231
[8] = system: S. aureus Newman
[9] = system: S. aureus DSM 20231; experiment: Bliss interaction score (quartile over a dose matrix) (fitness difference); higher = more antagonism (negative = synergy)
In short: (§2)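 Fitness is OD595 at stationary-phase entry relative to the plate's robust no-drug mean, capped at 1. Single-drug fitness was inferred from combinations. The Bliss score is observed minus product-expected fitness, summarised by quartiles over technical, biological and donor/recipient replicates.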

[10] = system: B. subtilis 168; experiment: as above
In short: as §2

[11] = system: S. pneumoniae D39V; experiment: as above
In short: as §2

[12] = system: S. aureus Newman; experiment: as above
In short: as §2
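Throughout, for Bliss interaction score (quartile over a dose matrix): first quartile when negative (synergy) and third quartile when positive (antagonism).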

C[C@@H](O)[C@H]1C(=O)N2C(C(=O)O)=C(SCCNC=N)C[C@H]12 [Imipenem]
fitness
Settings	0.005 µg/mL	0.01 µg/mL	0.02 µg/mL	0.0625 µg/mL	0.125 µg/mL	0.25 µg/mL
[1]	–	–	–	0.857	0.751	0.466
[2]	0.961	0.95	0.943	–	–	–

Settings	MIC [µg/mL]
[3]	0.5 (≈ 1.67 µM)
[4]	0.062 (≈ 0.207 µM)

CCC[C@@H]1C[C@@H](C(=O)N[C@@H]([C@H]2O[C@H](SC)[C@H](O)[C@@H](O)[C@H]2O)[C@H](C)Cl)N(C)C1 [Clindamycin]
Settings	fitness
[1], 0.0625 µg/mL	0.596
[1], 0.125 µg/mL	0.432
[1], 0.25 µg/mL	0.393
[2], 0.015 µg/mL	0.869
[2], 0.03 µg/mL	0.682
[2], 0.06 µg/mL	0.456
[5], 0.0312 µg/mL	0.747
[5], 0.0625 µg/mL	0.246
[5], 0.125 µg/mL	0.0653
[6], 0.0312 µg/mL	0.775
[6], 0.0625 µg/mL	0.432
[6], 0.125 µg/mL	0.108

Settings	MIC [µg/mL]
[3]	1 (≈ 2.35 µM)
[4]	0.125 (≈ 0.294 µM)
[7]	0.125 (≈ 0.294 µM)
[8]	0.125 (≈ 0.294 µM)

CCC[C@@H]1C[C@@H](C(=O)N[C@@H]([C@H]2O[C@H](SC)[C@H](O)[C@@H](O)[C@H]2O)[C@H](C)Cl)N(C)C1 [Clindamycin] + CN1C2=CC=CC=C2N=C3C1=CC=CC3=O [Pyocyanin]
Settings	Bliss interaction score
[9]	0.025
[10]	0.0629
[11]	-0.0665
[12]	-0.141

Settings	fitness
[1], first compound 0.0625 µg/mL, partner 1.25 µg/mL	0.562
[1], first compound 0.0625 µg/mL, partner 2.5 µg/mL	0.576
[1], first compound 0.0625 µg/mL, partner 5 µg/mL	0.517
[1], first compound 0.125 µg/mL, partner 1.25 µg/mL	0.388
[1], first compound 0.125 µg/mL, partner 2.5 µg/mL	0.389
[1], first compound 0.125 µg/mL, partner 5 µg/mL	0.358
[1], first compound 0.25 µg/mL, partner 1.25 µg/mL	0.34
[1], first compound 0.25 µg/mL, partner 2.5 µg/mL	0.319
[1], first compound 0.25 µg/mL, partner 5 µg/mL	0.314
[2], first compound 0.0125 µg/mL, partner 0.325 µg/mL	0.775
[2], first compound 0.0125 µg/mL, partner 0.65 µg/mL	0.742
[2], first compound 0.0125 µg/mL, partner 1.3 µg/mL	0.564
[2], first compound 0.025 µg/mL, partner 0.325 µg/mL	0.49
[2], first compound 0.025 µg/mL, partner 0.65 µg/mL	0.458
[2], first compound 0.025 µg/mL, partner 1.3 µg/mL	0.333
[2], first compound 0.05 µg/mL, partner 0.325 µg/mL	0.192
[2], first compound 0.05 µg/mL, partner 0.65 µg/mL	0.147
[2], first compound 0.05 µg/mL, partner 1.3 µg/mL	0.0814
[5], first compound 0.0625 µg/mL, partner 5 µg/mL	0.0689
[5], first compound 0.125 µg/mL, partner 1.25 µg/mL	0.0414
[5], first compound 0.125 µg/mL, partner 2.5 µg/mL	0.0387
[5], first compound 0.125 µg/mL, partner 5 µg/mL	0.0705
[6], first compound 0.0312 µg/mL, partner 1.25 µg/mL	0.602
[6], first compound 0.0312 µg/mL, partner 2.5 µg/mL	0.424
[6], first compound 0.0312 µg/mL, partner 5 µg/mL	0.155
[6], first compound 0.0625 µg/mL, partner 2.5 µg/mL	0.179
[6], first compound 0.0625 µg/mL, partner 5 µg/mL	0.0835
[6], first compound 0.125 µg/mL, partner 1.25 µg/mL	0.0658
[6], first compound 0.125 µg/mL, partner 2.5 µg/mL	0.0591
[6], first compound 0.125 µg/mL, partner 5 µg/mL	0.0732

fitness, one replicate
Settings	first compound 0.0039 µg/mL	first compound 0.0078 µg/mL	first compound 0.015 µg/mL	first compound 0.0156 µg/mL	first compound 0.03 µg/mL	first compound 0.06 µg/mL
[1], partner 1.25 µg/mL	0.892	0.424	–	0.863	–	–
[1], partner 2.5 µg/mL	0.922	0.451	–	0.802	–	–
[1], partner 5 µg/mL	0.821	0.495	–	0.725	–	–
[2], partner 0.325 µg/mL	–	–	0.89	–	0.873	0.554
[2], partner 0.65 µg/mL	–	–	0.963	–	0.881	0.689

O=C(O[C@@H]1Cc2c(O)cc(O)cc2O[C@@H]1c1cc(O)c(O)c(O)c1)c1cc(O)c(O)c(O)c1 [EGCG] + CCN(CC)CCOC(=O)c1ccc(N)cc1 [Procaine]
Settings	Bliss interaction score
[9]	0.0893
[10]	-0.0744
[11]	0.0572
[12]	-0.124

fitness
Settings	partner 85.5 µg/mL	partner 171 µg/mL	partner 342 µg/mL
[1], first compound 6.25 µg/mL	0.913	0.882	0.88
[1], first compound 12.5 µg/mL	0.715	0.75	0.599
[1], first compound 25 µg/mL	–	–	0.227
[2], first compound 12.5 µg/mL	0.965	0.984	0.912
[2], first compound 25 µg/mL	0.969	≥ 1	0.969
[2], first compound 50 µg/mL	0.996	0.903	≥ 1
[5], first compound 12.5 µg/mL	0.821	0.821	0.833
[5], first compound 25 µg/mL	0.809	0.858	0.886
[5], first compound 50 µg/mL	–	0.854	–
[6], first compound 12.5 µg/mL	0.729	0.764	0.77
[6], first compound 25 µg/mL	0.641	0.71	0.78

O=C(O[C@@H]1Cc2c(O)cc(O)cc2O[C@@H]1c1cc(O)c(O)c(O)c1)c1cc(O)c(O)c(O)c1 [EGCG]
fitness
Settings	[1]	[2]	[5]	[6]
6.25 µg/mL	0.91	–	–	–
12.5 µg/mL	0.709	0.946	0.841	0.778
25 µg/mL	0.34	0.964	0.776	0.714
50 µg/mL	–	0.987	0.795	0.671

Settings	MIC [µg/mL]
[3]	50 (≈ 109 µM)
[4]	400 (≈ 873 µM)
[7]	50 (≈ 109 µM)
[8]	50 (≈ 109 µM)

O=C(O[C@@H]1Cc2c(O)cc(O)cc2O[C@@H]1c1cc(O)c(O)c(O)c1)c1cc(O)c(O)c(O)c1 [EGCG] + Cc1onc(-c2ccccc2)c1C(=O)N[C@@H]1C(=O)N2[C@@H]1SC(C)(C)[C@@H]2C(=O)O [Oxacillin]
Settings	Bliss interaction score
[9]	-0.0707
[10]	-0.0648
[11]	0.0942
[12]	0.0991

fitness
Settings	first compound 6.25 µg/mL	first compound 12.5 µg/mL	first compound 25 µg/mL	first compound 50 µg/mL
[1], partner 0.002 µg/mL	0.935	–	0.202	–
[1], partner 0.004 µg/mL	0.924	0.538	0.205	–
[1], partner 0.008 µg/mL	0.898	0.525	0.186	–
[2], partner 0.005 µg/mL	–	0.989	0.973	≥ 1
[2], partner 0.01 µg/mL	–	0.924	0.903	0.966
[2], partner 0.02 µg/mL	–	0.929	0.947	0.923
[2], partner 0.04 µg/mL	–	0.474	0.576	0.632
[5], partner 0.0156 µg/mL	–	0.645	0.582	0.62
[5], partner 0.0312 µg/mL	–	0.498	0.548	–
[5], partner 0.0625 µg/mL	–	0.442	0.393	0.34
[6], partner 0.0156 µg/mL	–	0.591	0.605	–
[6], partner 0.0312 µg/mL	–	0.624	0.681	–
[6], partner 0.0625 µg/mL	–	0.59	0.636	–

fitness, [1], one replicate
Settings	partner 0.0078 µg/mL	partner 0.0155 µg/mL	partner 0.031 µg/mL	partner 0.075 µg/mL	partner 0.15 µg/mL	partner 0.3 µg/mL
first compound 6.25 µg/mL	0.998	0.978	0.972	0.515	0.0556	0.0544
first compound 12.5 µg/mL	0.858	0.852	0.792	0.444	0.0247	0.0417
first compound 25 µg/mL	0.602	0.559	0.434	0.139	0.0233	0.024
